Laboratory results: patent US9656981B2, “Peripherally-acting cannabinoid receptor agonists for chronic pain” (The Regents of the University of California, priority 2012, dated 2017)
Like-named read-outs stand apart in the source and are kept apart here.

What was measured:
[1] = target: human CB1R (hCB1R) (Homo sapiens, UniProt P21554); assay: human CB1R (hCB1R) calcium flux assay; assay type: cell-based; conditions: Table 1; read-out: Ca Flux % Emax
Text: Compounds were first screened for: a) CB1R and CB2R binding, b) CB1R agonist activity using the human CB1R (hCB1R) calcium flux assay, and c) BBB permeability using the Madin-Darby canine kidney (MDCK-MDR1) cell line assay.
The calcium 3 dye assays were run according to manufacturer's specifications (http://www.moleculardevices.com/Products/Assay-Kits/GPCRs/FLIPR-Calcium.html) and as reported in our previous publications^112,113. Briefly, wells of black clear-bottom 96-well tissue culture-treated plates are seeded with 20,000 cells the afternoon before assay. The day of assay, the cells are incubated with the Ca^2+ indicator dye for 1 hr @ 37° C. For antagonist assays, the test compound is preincubated with the cells during the last 10 min of the dye incubation. Basal or unstimulated fluorescence intensity is recorded in the FlexStation @ 37° C. for 13 sec followed by the addition of test compound or CP 55,940 (depending on the assay endpoint). Fluorescence intensity is recorded for an additional 47 sec. The effect of test compound in each well is determined by subtracting the minimum from the maximum fluorescence during the 47-sec recording period.

[2] = tested on: rats; assay: Rotarod test of the tetrad; assay type: in vivo, rat; conditions: 2-3 hr
Protocol: Rats were tested for motor function and the ataxic effects of novel drugs as described previously^151-153. To determine drug effects on motor coordination, rats are trained 72 h before the test (3 sessions 24 h apart) to remain for at least 180 s on a rotarod revolving at an acceleration of 4-40 revs over 5 min). Rats are tested immediately before vehicle or drug injections and tested again at 2, 6, 24 and 48 hrs after injection. The time for which the rats are able to remain on the rotarod is recorded up to a cut-off of 5 min.

[3] = tested on: CFA-induced heat hyperalgesia; assay: CFA chronic inflammation, heat hyperalgesia (Hargreaves); assay type: in vivo, rat; conditions: systemic injection
Protocol: The Hargreaves method was used to assess paw-withdrawal latency to a thermal nociceptive stimulus^175. Rats were acclimated (10 min) within Plexiglas enclosures (10×20×20 cm) on a clear glass plate preheated to 30° C. A radiant heat source (adjustable infrared lamp) and a timer were used to measure paw withdrawal latency (Model 390, IITC Instruments). Each paw was tested 4 times at 30% maximal intensity allowing 5 min between each test. […] Results of 4 tests were averaged for each paw for that session.

[4] = tested on: sciatic nerve entrapment (SNE) neuropathy; assay: SNE neuropathy, mechanical allodynia (von Frey); assay type: in vivo, rat; conditions: 0.3 mg/kg
Protocol: The effectiveness of CBR agonists was tested for alleviating the painful symptoms of neuropathy induced by unilateral sciatic nerve entrapment (SNE)^131. The peripheral neuropathy induced by SNE is highly comparative to that of chronic constriction injury (CCI), which uses chromic gut suture materials instead of polyethylene cuffs^132. […] This increased excitability is at least in part attributable to injury-induced post-transcriptional transport of the voltage-gated sodium channel 1.8 (NaV1.8) mRNA, axonal accumulation of NaV1.8 mRNA, and its local protein translation leading to the increased NaV1.8 functional expression in injured nerve^136. The hyperexcitability and ectopic burst discharge of primary sensory neurons are widely considered to be the major contributors to pain symptomatology of peripheral neuropathy models. The SNE-induced mechanical allodynia effectively models the most common complaint of human neuropathy patients of dynamic mechanical allodynia. Behavioral measurements of mechanical sensitivity were conducted before and after induction of SNE as follows:
(§1) Rats are placed in a plastic-walled cage (10×20×13 cm) with a metal mesh floor (0.6×0.6 cm holes) and allowed to acclimate for 10 min. The amount of pressure (g) needed to evoke a hindpaw withdrawal response is measured 4 times on each paw separated by 30-s intervals using a von Frey-type digital meter (Model 1601C, IITC Instr.). Results of 4 tests/session are averaged for each paw.

[5] = tested on: CFA-induced mechanical allodynia; assay: CFA chronic inflammation, mechanical allodynia; assay type: in vivo, rat; conditions: systemic injection
Protocol: as §1
Compounds were tested in a well-established model of chronic inflammation. In this model, unilateral intraplantar injection of complete Freund's adjuvant (CFA) leads to long-lasting symptoms of mechanical allodynia and thermal hyperalgesia of the affected hindpaw, which is alleviated by local, […] administration of CB1R ligands^125, 155. […] This is consistent with the higher CB1R affinity of our novel compound 13339-145-35 (Compound 9, see Table 1) compared with the AstraZeneca AZ11713908 compound^125.

[6] = tested on: rats; assay: Catalepsy (ring) test of the tetrad; assay type: in vivo, rat; conditions: 1-3 hrs
Protocol: Catalepsy (ring) test. Catalepsy was determined with a ring immobility test^154, modified for rats^139, 153. Rats are placed with their forepaws on a horizontal metal ring (12 cm diameter) at a height that allows their hindpaws to just touch the bench surface. Immobility is recorded as the time for the rat to move off the ring with a 100 s cutoff. Rats are tested before vehicle/drug injections and again at various times after injection.

[7] = target: CB1R (Homo sapiens, UniProt P21554); assay: CB1R radioligand displacement binding assay (CP55940 radioligand)
Protocol: Heterologous competition binding assays were performed to calculate receptor affinities. Unlabeled SR141716 or SR144528 were used as appropriate controls for non-specific binding (NSB) in the assay. Calculation of the equilibrium dissociation constant (Ki) was performed using the Cheng-Prusoff equation.

[8] = tested on: rats; assay: Tail-flick test of the tetrad; assay type: in vivo, rat; conditions: 0.3 mg/kg, intraperitoneal
Text: A modified Hargreaves apparatus (Model 390, IITC Instr.) is used to measure tail-flick latency (TFL). Radiant heat is directed to a point 3 cm from the tail tip and the TFL observed and timed with a photo cell counter. The intensity of the radiant heat is adjusted for a baseline TFL of approximately 5-7 seconds for naïve rats, with a 25 s cutoff set to avoid tissue damage (see FIG. 3).

[9] = tested on: rats; assay: Hypothermia test of the tetrad; assay type: in vivo, rat
Protocol: Rats are acclimated to a plastic restrainer apparatus (Model RTV-180 Braintree Scientific Inc.) on the day of testing by placing them in the restrainer twice for 5 min separated by 20 min. Baseline core temperature is taken before treatment, and the rectal temperature is measured again at various times after injection of the CB1R ligands.

[10] = target: CB2R (Homo sapiens, UniProt P34972); assay: CB2R radioligand displacement binding assay (CP55940 radioligand)
Protocol: Detailed radioligand displacement assays (using the well-characterized CBR agonist […] as the radioligand) were conducted to determine the affinity (Ki) of the test compounds for CB1R and CB2R as has been previously described by our group^112,113. Heterologous competition binding assays were performed to calculate receptor affinities. Unlabeled SR141716 or SR144528 were used as appropriate controls for non-specific binding (NSB) in the assay. Calculation of the equilibrium dissociation constant (Ki) was performed using the Cheng-Prusoff equation.

[11] = tested on: rats; assay: Tetrad assays overall (CNS-mediated side effects); assay type: in vivo, rat; conditions: doses effective against neuropathy symptoms, i.p.
Text: The CNS-mediated psychotropic actions of CB1R ligands represent their most troubling side effects. The cannabinoid agonists such as Δ9-THC or anandamide produce a complex pattern of behavioral effects which are unique to this class of compounds: at low doses a mixture of stimulatory and depressant effects is observed, while at higher doses central depression predominates^137,138. The tetrad of tests which is classically predictive of cannabinoid receptor activation includes: catalepsy, motor performance, hypothermia, and analgesia tests^139-141. Effects observed in all four tests have been thought to be mediated by the activation of central CBRs, but it is now well established that peripheral CBRs make a major contribution to the analgesic effects of cannabinoids^142-144. The catalepsy and motor deficits induced by CB1R ligands are likely produced by their action on CB1Rs within the basal ganglia and cerebellum, while hypothermia is thought to be mediated mainly through hypothalamic and brainstem CB1Rs^137, 145-150. […] Therefore, “tetrad” tests were used to determine whether the novel CB1R ligands have antinociceptive effects and side-effect profile consistent with the activation of central CB1Rs. […]

CB1R, sequence (P21554 whole entry): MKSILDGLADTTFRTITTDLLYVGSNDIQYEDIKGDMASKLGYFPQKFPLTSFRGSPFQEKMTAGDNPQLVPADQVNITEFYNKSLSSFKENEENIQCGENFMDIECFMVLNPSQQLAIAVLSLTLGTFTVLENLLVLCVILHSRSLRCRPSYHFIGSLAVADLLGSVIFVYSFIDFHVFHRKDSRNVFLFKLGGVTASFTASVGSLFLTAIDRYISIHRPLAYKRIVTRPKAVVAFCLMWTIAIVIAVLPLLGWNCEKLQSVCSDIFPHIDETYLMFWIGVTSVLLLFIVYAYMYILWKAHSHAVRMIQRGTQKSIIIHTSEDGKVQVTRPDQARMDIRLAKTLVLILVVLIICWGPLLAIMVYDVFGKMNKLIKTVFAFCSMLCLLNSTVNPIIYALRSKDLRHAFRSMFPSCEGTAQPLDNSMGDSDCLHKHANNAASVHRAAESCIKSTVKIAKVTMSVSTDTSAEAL
CB2R, sequence (P34972 whole entry): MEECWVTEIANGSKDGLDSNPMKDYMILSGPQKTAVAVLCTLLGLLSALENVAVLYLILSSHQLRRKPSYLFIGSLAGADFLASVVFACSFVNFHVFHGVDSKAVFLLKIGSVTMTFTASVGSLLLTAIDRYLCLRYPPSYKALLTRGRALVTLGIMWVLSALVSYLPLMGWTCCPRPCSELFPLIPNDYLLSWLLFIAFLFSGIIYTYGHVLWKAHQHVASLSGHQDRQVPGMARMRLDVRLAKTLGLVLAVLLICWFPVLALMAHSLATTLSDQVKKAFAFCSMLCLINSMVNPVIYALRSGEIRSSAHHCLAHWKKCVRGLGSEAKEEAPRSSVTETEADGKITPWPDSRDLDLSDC
human CB1R (hCB1R), sequence (P21554 whole entry): as the sequence (P21554 whole entry) above

For COc1ccc(/C=C2\C=C(CCN3CCOCC3)c3ccccc32)c2ccccc12 [Compound 10, 4-{2-[(1E)-2-[(4-methoxy-naphthalen-1-yl)methylidene]-1H-inden-3-yl]ethyl} morpholine], the Emax [1] was 114%, the “Rotarod % change from pre-drug (0.3 mg/kg) at 2-3 hr” value [2] was 0% and the “effect on CFA-induced heat hyperalgesia” value [3] was “robust relief”. For the same compound, the “effect on SNE-induced mechanical allodynia (ipsilateral hindpaw withdrawal thresholds)” value ([4]; systemic injection) was “anti-allodynic effects”, the “SNE Neuropath Assay-% return to pre-drug (0.3 mg/kg) contralateal threshold at 2-3 h” value ([4]; 2-3 h) was 103.2% and the “effect on CFA-induced mechanical allodynia” value [5] was “relatively small effect”. For the same compound, the “Catalepsy % change from pre-drug (0.3 mg/kg) at 1-3 hrs” value [6] was 0%, the Ki [7] was 2.4 nM and the Ki ([7]; Table 1, CP55940 radioligand, read-out: CB1_KI_CP) was 2.43 nM. The “effect in the tail-flick assay” value [8] was “small, but significant effects”, the “effect in the hypothermia assay” value ([9]; 0.3 mg/kg, intraperitoneal) was “small difference” and the “Hypothermia % change from predrug (0.3 mg/kg) at 2-3 hr” value ([9]; 2-3 hr) was 0%. For the same compound, the Ki [10] was 4.17 nM.

CCCCCCC(C)(C)c1cc(O)c2c(c1)OC(C)(C)[C@@H]1CC=C(CO)C[C@@H]21 [HU-210] was tested, and the “CNS side effects in the tetrad assays” value [11] was “potent CNS side effects”.
